The text below walks through data of patent publication US20220160686A1, “MACROCYCLIC AZOLOPYRIDINE DERIVATIVES AS EED AND PRC2 MODULATORS” (Fulcrum Therapeutics, Inc., priority 2019, published 2022).

As a reminder, the Kd is the free concentration of one partner at which half of the binding sites on the other are occupied at equilibrium, for simple one-to-one binding. By IC50 is commonly meant the concentration at which inhibition is half-maximal.

Test [1] deals with T1, biotinylated AVI-tagged EED (76-441) (Homo sapiens, UniProt O75530).
T1 construct: GST (N, cleaved yes); made in house; host or cells: E. coli BL21(DE3), co-expressed with pGro7
Description: EED binding SPR assay. As to conditions: 1:1 binding model; read-out: KD, equilibrium dissociation constant as measured by surface plasmon resonance (SPR). How it is done: Biotinylated AVI-tagged EED was produced using standard molecular biology techniques. A pGEX plasmid with a GST-preScission-cleavage-site-AVI-EED(76-441) sequence was placed into E. coli BL21(DE3) cells and co-expressed with pGro7. The E. coli were grown in shaker flasks in LB with ampicillin at 37° C. at 110 rpm to an OD600=0.7. At this time the temperature was lowered to 15° C. and IPTG was added to 0.3 mM. The cells were allowed to express overnight. Cells were then harvested.
For purification, the E. coli cell pellet was lysed into a buffer of 50 mM Tris pH 8.0, 500 mM NaCl, 5% glycerol and 5 mM DTT. The lysate was loaded onto a GSTrap FF column from GE Healthcare. After washing, the bound protein was eluted with 50 mM Tris pH 8.0, 500 mM NaCl, 5% glycerol, 5 mM DTT and 15 mM GSH. The collected fractions were combined and incubated with PreScission enzyme overnight at 4° C. The cleaved protein was then passed through a GSTrap FF column in a buffer of 50 mM Tris pH 8.0, 500 mM NaCl, 5% glycerol and 5 mM DTT. The cleaved protein was confirmed through mass spectrometry. The AVI-EED(76-441) was then buffer exchanged into 50 mM Bicine pH 8.3, 10 mM ATP, 10 mM magnesium acetate and 50 μM D-Biotin. 3 mg of BirA enzyme was added to the system and incubated at 4° C. for 2 hours to biotinylate the AVI-EED(76-441). The biotinylated-AVI-EED(76-441) was then buffer exchanged into 20 mM Tris pH 8.0 and 400 mM NaCl and passed through a size exclusion column of Superdex 200 16/60 Increase. The purified monomeric biotinylated-AVI-EED(76-441) was confirmed through SDS-PAGE, LC-MS and analytical size exclusion chromatography.
All surface plasmon resonance (SPR) assays were performed using a GE Biacore S200 utilizing GE Biotin CAPture chips. Capturing of CAP reagents was performed with a flow rate of 2 μL/min for 90 seconds. For protein capturing, a solution of 50 μg/mL of biotinylated AVI-tagged EED (76-441) in 10 mM HEPES pH 7.4, 150 mM NaCl, 0.05% Tween 20 and 2% DMSO (Running Buffer) was flowed over the chip with a flow rate of 5 μL/min for a contact time of 30 seconds. Final readings were 2200-2400 RU. For compounds, 7 concentrations were made with 3-dilutions using the Running Buffer for a total of 300 μL of each concentration in a 96-well microplate. During the binding experiments, a flow rate of […] was used for an association time of 90 seconds followed by a disassociation time of 180 seconds. The compartment temperature was set at 10° C. with the chip at 25° C. During regeneration the flow rate was set to 30 μL/min for 30 seconds. All fittings were done using a 1:1 binding model.
In general terms: Surface plasmon resonance follows binding to a sensor surface in real time, without labels.

Test [2] concerns human P-glycoprotein HEK cells (HEK-P-gp). In words: H3K27me3 immunocytochemistry assay in P-gp expressing HEK293T cells, with or without elacridar. The format is cell-based. The following applies: Homo sapiens, 4 days compound treatment. The protocol:
A plasmid encoding the human ABCB1 gene under the control of a CMV promoter was purchased from Origene (Cat #RC216080). The HEK293T cells were purchased from ATCC (Cat #CRL-3216) and were cultured for expansion in the recommended conditions. The HEK293T cells were transfected with 2 ug of the pCMV-ABCB1 plasmid using Lipofectamine 3000 following recommendations from the manufacturer (ThermoFisher Scientific, Cat #L3000008). After 24 h, cells were dissociated, and 5000 cells were seeded on a 10 cm tissue culture dish. On the next day, fresh media containing 5 nM Vinblastine (Sigma, Cat #V1377) was added, and media containing compound was replenished every 72 h. After surviving cells reached confluency, cells were passaged, and lines were maintained in the presence of 2.5 nM Vinblastine until further characterization.
P-gp expressing HEK293T, HUDEP2, and Human Mobilized Peripheral Blood Primary CD34+ cells were cultured for use in an H3K27me3 immunocytochemistry assay. HUDEP2 and Human Mobilized Peripheral Blood Primary CD34+ cells were cultured for use in an HbF immunocytochemistry assay. P-gp expressing HEK293T cells were maintained and passaged every 3-4 days by plating 300,000 viable cells in a T-25 culture flask containing 6 mLs of 293 Passaging Media comprised of DMEM (ThermoFisher #10566016), 10% fetal bovine serum (ThermoFisher #A3160502), 1% penicillin-streptomycin (ThermoFisher #15140122), and 2.5 nM Vinblastine (Sigma #V1377). To evaluate the inhibitory effect of the compounds of the present disclosure and their brain penetrant properties via P-gp mediated efflux, the H3K27me3 immunocytochemistry assay was conducted in the presence or absence of 250 nM of the P-gp inhibitor, elacridar. Poor brain penetrant compounds were expected to show higher potencies in the presence of Elacridar. However, brain penetrant compounds would show similar potencies irrespective of whether Elacridar is present or not. In these experiments plates without elacridar were seeded with P-gp expressing HEK293T cells at 1000 viable cells per well in a poly-d-lysine coated 384-well plate (Corning Cat #356697) in 45 μL of 293 Assay Media comprised of DMEM (ThermoFisher #10566016), 10% fetal bovine serum (ThermoFisher #A3160502), 1% penicillin-streptomycin (ThermoFisher #15140122). A replicate set of plates were seeded under the same conditions with 45 μL of 293 Assay Media supplemented with 250 nM of Elacridar to inhibit P-gp activity. Compounds were serially diluted at 10× concentration in 293 Media, and 5 μL transferred to their respective wells on both sets of plates for a total volume of 50 μL per well. The compound treated HEK293T cells were allowed to incubate for 4 days at 37° C., 85% relative humidity, and 5% CO2 before proceeding to ICC Fix and Stain protocol.
The Fix and Stain Protocol was the same for HEK293T, HUDEP2, and Primary CD34+ cell assays except the specific primary and secondary antibodies used for detection. Following 4 days of compound treatment, the respective plates were washed once with 25 μL of PBS (ThermoFisher #10010023) and fixed with 25 μL of 4% paraformaldehyde (ThermoFisher #28908) for 10 minutes at room temperature. The plates were then washed three times with 25 μL of PBS. Subsequent to that, the cells were permeabilized and blocked for 1 hour at room temperature in 25 μL of Perm/Block buffer comprised of IX PBS, 1% bovine serum albumin (ThermoFisher #A3294), 10% fetal bovine serum (ThermoFisher #A3160502), 0.3M glycine (Sigma #G7126), and 0.1% tween-20 (Sigma #P7949). This was followed by additional washing (three times) of the plates with 25 μL of 0.1% tween in PBS.
For the H3K27me3 assay, the cells were incubated overnight at 4° C. with 25 μL of H3K27me3 Primary Antibody (Cell Signaling #9733) diluted 1:200 in 0.1% tween-20 in PBS. […]

Where [3] appears, read: HEK293, 96 h, without elacridar, read-out: IC50, inhibitory activity on human P-glycoprotein HEK cells (HEK-P-gp).
[4] abbreviates: HEK293, with 250 nM elacridar, read-out: IC50, inhibitory activity on human P-glycoprotein HEK cells (HEK-P-gp) pretreated with elacridar.

Several values for one entry are separate records, joined by “and”; a condition that tells them apart may be missing. Equal values may be shown once. Read-outs that look alike come from different tables or passages of the source. Some results are limits rather than exact numbers.

T1 sequence (O75530 76-441 limits assumed): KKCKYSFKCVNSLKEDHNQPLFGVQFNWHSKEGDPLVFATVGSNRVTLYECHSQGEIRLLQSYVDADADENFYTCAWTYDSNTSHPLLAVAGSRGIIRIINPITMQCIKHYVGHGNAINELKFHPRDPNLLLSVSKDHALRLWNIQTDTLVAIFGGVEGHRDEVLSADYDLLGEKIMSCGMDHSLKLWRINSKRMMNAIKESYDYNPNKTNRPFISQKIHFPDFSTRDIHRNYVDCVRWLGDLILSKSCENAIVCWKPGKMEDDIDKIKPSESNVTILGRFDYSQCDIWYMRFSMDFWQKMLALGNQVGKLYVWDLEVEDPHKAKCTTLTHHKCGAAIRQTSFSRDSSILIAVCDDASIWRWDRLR

Take `Cc1ccc(C(F)F)c(-c2cc3c(n4cnnc24)NCc2c(F)ccc4c2[C@@H](CO4)CO3)n1` [Compound 144]: the Kd in test [1] is 2.5 to 5 nM. In addition, the IC50 in test [2] (setting [3]) and in test [2] (setting [4]) was 100 to 500 nM each time.
Regarding `COc1ncc(F)cc1-c1cc2c(n3cnnc13)NCc1c(F)ccc3c1[C@H](CO3)CO2` [Example 111], the Kd in test [1] fell in the range of 2.5 to 5 nM. The IC50 in test [2] (setting [3]) and in test [2] (setting [4]) was 100 to 500 nM throughout.
Consider `Cn1ncc(O)c1-c1cc2c(n3cnnc13)NCc1c(F)ccc3c1C(CO3)CO2` [Compound 196, (S)-5-(12-fluoro-7a,8,13,14-tetrahydro-7H-[1,2,4]triazolo[4′,3′:1,6]pyrido[3,2-b]benzofuro[4,3-fg][1,4]oxazonin-4-yl)-1-methyl-1H-pyrazol-4-ol], for which the Kd in test [1] is below 2.5 nM. For the same compound, the IC50 was in the range of 25 to 50 nM in test [2] (setting [3]) and 50 to 100 nM in test [2] (setting [4]).
The corresponding values for `Cc1nccc(O)c1-c1cc2c(n3cnnc13)NCc1c(F)ccc3c1C(CO3)CO2` [Compound 192, (S)-3-(12-fluoro-7a,8,13,14-tetrahydro-7H-[1,2,4]triazolo[4′,3′:1,6]pyrido[3,2-b]benzofuro[4,3-fg][1,4]oxazonin-4-yl)-2-methylpyridin-4-ol] are 10 to 50 nM, above 500 nM and above 500 nM.
The corresponding values for `COc1cccnc1-c1cc2c(n3cnnc13)NCc1c(F)ccc3c1[C@@H](CO3)CO2` [Compound 159, (S)-12-fluoro-4-(3-methoxypyridin-2-yl)-7a,8,13,14-tetrahydro-7H-[1,2,4]triazolo[4′,3′:1,6]pyrido[3,2-b]benzofuro[4,3-fg][1,4]oxazonine] are 10 to 50 nM, above 500 nM and above 500 nM.
On to `Cn1nc(O)cc1-c1cc2c(n3cnnc13)NCc1c(F)ccc3c1C(CO3)CO2` [Compound 197, (S)-5-(12-fluoro-7a,8,13,14-tetrahydro-7H-[1,2,4]triazolo[4′,3′:1,6]pyrido[3,2-b]benzofuro[4,3-fg][1,4]oxazonin-4-yl)-1-methyl-1H-pyrazol-3-ol], for which the Kd in test [1] was 10 to 50 nM and < 2.5 nM. Also, the IC50 in test [2] (setting [3]) is below 25 nM; in test [2] (setting [4]), 50 to 100 nM.
Take `Cn1nccc1-c1cc2c(n3cc(C(=O)O)nc13)NCc1c(F)ccc3c1[C@@H](CO3)CO2` [Compound 174, (S)-5-fluoro-12-(1-methyl-1H-pyrazol-5-yl)-6,7,15,15a-tetrahydro-1H-benzofuro[4,3-fg]imidazo[r,2′:1,6]pyrido[3,2-b][1,4]oxazonine-10-carboxylic acid]: the Kd in test [1] was 5 to 10 nM.
Regarding `Fc1ccc2c3c1CNc1c(cc(-c4ccc(C(F)(F)F)cn4)c4nncn14)OCC3CO2` (stereo not shown) [Example 113], the Kd in test [1] lay in the range of 10 to 50 nM. The IC50 in test [2] (setting [3]) and in test [2] (setting [4]) was above 500 nM throughout.
For the compound `Cc1ncccc1-c1cc2c(n3cc(C(=O)O)nc13)NCc1c(F)ccc3c1[C@@H](CO3)CO2` [Compound 177, (S)-5-fluoro-12-(2-methylpyridin-3-yl)-6,7,15,15a-tetrahydro-1H-benzofuro[4,3-fg]imidazo[r,2′:1,6]pyrido[3,2-b][1,4]oxazonine-10-carboxylic acid], the Kd in test [1] was 10 to 50 nM. The half-inhibitory concentration (IC50) in test [2] (setting [3]) and in test [2] (setting [4]) was above 500 nM throughout.
`Cc1cncnc1-c1cc2c(n3cnnc13)NCc1c(F)ccc3c1[C@@H](CO3)CO2` [Compound 162, (S)-12-fluoro-4-(5-methylpyrimidin-4-yl)-7a,8,13,14-tetrahydro-7H-[1,2,4]triazolo[4′,3′:1,6]pyrido[3,2-b]benzofuro[4,3-fg][1,4]oxazonine]: the Kd in test [1] lay within 2.5 to 5 nM. Moreover, the IC50 in test [2] (setting [3]) was 25 to 50 nM; in test [2] (setting [4]) it was 50 to 100 nM.
The corresponding values for `Cc1cn(C)c(-c2cc3c(n4cnnc24)NCc2c(F)ccc4c2C(CO4)CO3)n1` (stereo in doubt) [Compound 135, (S)-4-(1,4-dimethyl-1H-imidazol-2-yl)-12-fluoro-7a,8,13,14-tetrahydro-7H-[1,2,4]triazolo[4',3':1,6]pyrido]3,2-b]benzofuro[4,3-fg][1,4]oxazonine] are below 2.5 nM, 50 to 100 nM and 50 to 100 nM.
As for `Cc1ncc(O)cc1-c1cc2c(n3cnnc13)NCc1c(F)ccc3c1[C@@H](CO3)CO2` [Compound 194, (S)-5-(12-fluoro-7a,8,13,14-tetrahydro-7H-[1,2,4]triazolo[4′,3′:1,6]pyrido[3,2-b]benzofuro[4,3-fg][1,4]oxazonin-4-yl)-6-methylpyridin-3-ol], the dissociation constant (Kd) in test [1] was below 2.5 nM. Further, the 50% inhibitory concentration (IC50) in test [2] (setting [3]) and in test [2] (setting [4]) was 50 to 100 nM in each case.
On to `Cc1cc(-c2cc3c(n4cnnc24)NCc2c(F)ccc4c2[C@H](CO4)CO3)cnn1` [Example 123], for which, in test [1], the Kd is below 2.5 nM. The IC50 in test [2] (setting [3]) and in test [2] (setting [4]) was above 500 nM in each case.
